# Source: patent US12459951B2, “Compounds that interact with RAS superfamily proteins for treatment of cancers, inflammatory diseases, rasopathies, and fibrotic disease” (SHY Therapeutics, LLC, priority 2022, dated 2025)
# Columns and labels:
# JNK phosphorylation = experiment: JNK Activation Assay (western blot), Panc-1; assay type: cell-based, human; conditions: at 10 μM, Panc-1 pancreatic cancer cell line; starred symbols = activation
# Protocol: Protocol for JNK Activation Assay
# This assay is referred to as the “JNK Activation Assay” throughout this application.
# Cell lines: Human tumor-derived pancreatic cancer cell line Panc-1 (expressing KRas […] mutant) was purchased from American Type Culture Collection and grown in complete DMEM-High Glucose medium, supplemented with penicillin (100 U/mL), streptomycin (100 μg/mL), and 10% heat-inactivated FBS at 37° C. in a humidified incubator with 5% CO2.
# Method 1: Cells were plated at 350000 cells/well density in a 12-well plate, allowed 3 hours to adhere to the plate, then starved in the appropriate medium in the presence of 0.5% FBS overnight. The small molecules to be tested were added to the cells in the final concentration of 10 μM in the presence of 0.3% DMSO for 6 hours incubation at 37° C. For IC50 value determination, serial dilutions of compounds were added to cells under the same conditions. Next, cells were stimulated with 1.5 ng/ml EGF for 15 minutes then cells were lysed with lysis buffer containing 1% Triton X-100, EDTA, and Halt™ Protease & Phosphatase Inhibitor Cocktail (Thermo Scientific). Protein concentration was assessed by BCA protein assay (Thermo Scientific). Phosphorylation level of JNK was determined by western blot.
# Method 2: Cells were plated at 350000 cells/well density in a 12-well plate in the presence of 10% FBS. The next day small molecules to be tested were added to the cells in the final concentration of 10 μM in the presence of 0.3% DMSO for 6 hours incubation at 37° C. For IC50 value determination, serial dilutions of compounds were added to cells under the same conditions. Next, cells were lysed with lysis buffer containing 1% Triton X-100, EDTA, and Halt™ Protease & Phosphatase Inhibitor Cocktail (Thermo Scientific). Protein concentration was assessed by BCA protein assay (Thermo Scientific). Phosphorylation level of JNK was determined by western blot.
# Western blot protocol: Equal amounts of protein (15-50 μg) were separated by SDS-PAGE and transferred to nitrocellulose membranes (Invitrogen by Thermo Fisher Scientific). The membrane was stained with Ponceau S Stain (Boston BioProducts) to verify uniform protein loading. Membranes were blocked with 10% milk and phosphorylation levels of JNK were assessed by incubating overnight at 4° C. with the antibody Phospho-SAPK/JNK (Thr183/Tyr185), from Cell Signaling Technology. Then the membranes were incubated with HRP-conjugated secondary antibody (Jackson Immunoresearch, West Grove, PA). Bands were incubated in Amersham ECL Prime Western Blotting Detection Reagent (GE Healthcare) and visualized using the ChemiDoc MP imaging system (Bio-Rad).
# Erk1/2 phosphorylation = experiment: Erk1/2 Phosphorylation Assay (western blot), Panc-1; assay type: cell-based, human; conditions: at 10 μM, * = activation
# Summary of the method: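 Phospho-Erk1/2 (Thr202/Tyr204) was detected by western blot in lysates of Panc-1 cells (KRas G12D). These had 6 h, 37° C exposure to 10 μM compound or a dilution series for IC50, in 0.3% DMSO. Cells were either starved overnight in 0.5% FBS with a 15-min 1.5 ng/ml EGF pulse, or kept unstimulated in 10% FBS.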
Structure (SMILES),% inh of JNK in Panc-1 (JNK phosphorylation),% inh of Erk1/2 phosphorylation in Panc-1 (Erk1/2 phosphorylation)
"CO[C@H]1CC[C@@H](Nc2nc(-c3nccn3C)nn3cc(-c4ccn(C(C)C)n4)c(C(C)C)c23)C1 (racemic) [Compound 36, rac 5-Isopropyl-6-(1-isopropyl-1H-pyrazol-3-yl)-N-((1R,3S)-3-methoxycyclopentyl)-2-(1-methyl-1H-imidazol-2-yl)pyrrolo[2,1-f][1,2,4]triazin-4-amine]",H* (H* ≥ 100% activation),C (50-84% inhibition)
"COCCNc1nc(-c2nccn2C)nn2cc(-c3cccc(OC)c3Cl)c(-c3ccccc3)c12 [Compound 29, 6-(2-Chloro-3-methoxyphenyl)-N-(2-methoxyethyl)-2-(1-methyl-1H-imidazol-2-yl)-5-phenylpyrrolo[2,1-f][1,2,4]triazin-4-amine]",H (H = 100% inhibition),D (85-100% inhibition)
"COC1CCCN(c2nc(-c3ccccn3)nn3cc(-c4ccn(C(C)C)n4)c(-c4ccccc4)c23)C1 (racemic) [Compound 27, rac 6-(1-Isopropyl-1H-pyrazol-3-yl)-4-(3-methoxypiperidin-1-yl)-5-phenyl-2-(pyridin-2-yl)pyrrolo[2,1-f][1,2,4]triazine]",H* (H* ≥ 100% activation),0 (0% inhibition)
"COCCCNc1nc(-c2nccn2C)nn2cc(-c3cccc(OC)c3Cl)c(-c3ccccc3)c12 [Compound 30, 6-(2-Chloro-3-methoxyphenyl)-N-(3-methoxypropyl)-2-(1-methyl-1H-imidazol-2-yl)-5-phenylpyrrolo[2,1-f][1,2,4]triazin-4-amine]",F (F = 31-74% inhibition),D (85-100% inhibition)
"COC[C@@H]1CC[C@@H]1CNc1nc(-c2ccccn2)nn2cc(-c3ccn(C(C)C)n3)c(-c3ccccc3)c12 (racemic) [Compound 26, rac 6-(1-Isopropyl-1H-pyrazol-3-yl)-N-(((1S,2R)-2-(methoxymethyl)cyclobutyl)methyl)-5-phenyl-2-(pyridin-2-yl)pyrrolo[2,1-f][1,2,4]triazin-4-amine]",H* (H* ≥ 100% activation),D (85-100% inhibition)
"COCCNc1nc(-c2nccn2C)nn2cc(-c3ccn(C(C)C)n3)c(C(C)C)c12 [Compound 35, 5-Isopropyl-6-(1-isopropyl-1H-pyrazol-3-yl)-N-(2-methoxyethyl)-2-(1-methyl-1H-imidazol-2-yl)pyrrolo[2,1-f][1,2,4]triazin-4-amine]",H* (H* ≥ 100% activation),0 (0% inhibition)
"CO[C@H]1CC[C@@H](Nc2nc(-c3ccccn3)nn3cc(-c4ccn(C(C)C)n4)c(-c4ccccc4)c23)C1 (racemic) [Compound 24, rac 6-(1-Isopropyl-1H-pyrazol-3-yl)-N-((1R,3S)-3-methoxycyclopentyl)-5-phenyl-2-(pyridin-2-yl)pyrrolo[2,1-f][1,2,4]triazin-4-amine]",H* (H* ≥ 100% activation),0 (0% inhibition)
"COc1cccc(-c2cn3nc(-c4nccn4C)nc(O)c3c2-c2ccccc2)c1Cl [Compound 28, 6-(2-Chloro-3-methoxyphenyl)-2-(1-methyl-1H-imidazol-2-yl)-5-phenylpyrrolo[2,1-f][1,2,4]triazin-4-ol]",H* (H* ≥ 100% activation),0 (0% inhibition)
"COc1cccc(-c2cn3nc(-c4nccn4C)nc(N[C@H]4C[C@@H](OC)C4)c3c2-c2ccccc2)c1Cl [Compound 31, 6-(2-Chloro-3-methoxyphenyl)-N-((1s,3s)-3-methoxycyclobutyl)-2-(1-methyl-1H-imidazol-2-yl)-5-phenylpyrrolo[2,1-f][1,2,4]triazin-4-amine]",H* (H* ≥ 100% activation),D (85-100% inhibition)
"COc1cccc(Nc2nc(-c3nccn3C)nn3cc(-c4ccn(C(C)C)n4)c(-c4ccccc4)c23)n1 [Compound 23, 6-(1-Isopropyl-1H-pyrazol-3-yl)-N-(6-methoxypyridin-2-yl)-2-(1-methyl-1H-imidazol-2-yl)-5-phenylpyrrolo[2,1-f][1,2,4]triazin-4-amine]",H* (H* ≥ 100% activation),D (85-100% inhibition)
"Cc1c(-c2ccn(C)n2)cn2nc(-c3nccn3C)nc(Nc3cc(C(F)(F)F)[nH]n3)c12 [Compound 259, 5-Methyl-2-(1-methyl-1H-imidazol-2-yl)-6-(1-methyl-1H-pyrazol-3-yl)-N-(5-(trifluoromethyl)-1H-pyrazol-3-yl)pyrrolo[2,1-f][1,2,4]triazin-4-amine]",–,A* (1-25% activation)
"COc1ccnc(Nc2nc(-c3nccn3C)nn3cc(-c4ccn(C)n4)c(C4CC4)c23)c1 [Compound 276, 5-Cyclopropyl-N-(4-methoxypyridin-2-yl)-2-(1-methyl-1H-imidazol-2-yl)-6-(1-methyl-1H-pyrazol-3-yl)pyrrolo[2,1-f][1,2,4]triazin-4-amine]",–,D* (85-100% activation)
"COc1ccc(F)c(-c2cn3nc(-c4nccn4C)nc(N[C@H]4C[C@H](OC)C4)c3c2-c2ccccc2)c1F [Compound 273, 6-(2,6-Difluoro-3-methoxyphenyl)-N-((1r,3r)-3-methoxycyclobutyl)-2-(1-methyl-1H-imidazol-2-yl)-5-phenylpyrrolo[2,1-f][1,2,4]triazin-4-amine]",–,D (85-100% inhibition)
"Cc1c(-c2ccn(C)n2)cn2nc(-c3nccn3C)nc(-n3[nH]c(N)cc3=O)c12 [Compound 261, 5-Amino-2-(5-methyl-2-(1-methyl-1H-imidazol-2-yl)-6-(1-methyl-1H-pyrazol-3-yl)pyrrolo[2,1-f][1,2,4]triazin-4-yl)-1,2-dihydro-3H-pyrazol-3-one]",–,B (26-49% inhibition)
"Cc1c(-c2ccn(C)n2)cn2nc(-c3nccn3C)nc(Nc3cc(C(F)F)[nH]n3)c12 [Compound 258, N-(5-(Difluoromethyl)-1H-pyrazol-3-yl)-5-methyl-2-(1-methyl-1H-imidazol-2-yl)-6-(1-methyl-1H-pyrazol-3-yl)pyrrolo[2,1-f][1,2,4]triazin-4-amine]",–,A* (1-25% activation)
"COc1cccc(-c2cn3nc(-c4nccn4C)nc(N[C@@H]4CC[C@H]4OC)c3c2-c2ccccc2)c1C (racemic) [Compound 272, rac 6-(3-Methoxy-2-methylphenyl)-N-((1R,2R)-2-methoxycyclobutyl)-2-(1-methyl-1H-imidazol-2-yl)-5-phenylpyrrolo[2,1-f][1,2,4]triazin-4-amine]",–,D (85-100% inhibition)
"Cc1c(-c2ccn(C)n2)cn2nc(-c3nccn3C)nc(N3CCc4cc(C(F)(F)F)cnc43)c12 [Compound 251, 5-Methyl-2-(1-methyl-1H-imidazol-2-yl)-6-(1-methyl-1H-pyrazol-3-yl)-4-(5-(trifluoromethyl)-2,3-dihydro-1H-pyrrolo[2,3-b]pyridin-1-yl)pyrrolo[2,1-f][1,2,4]triazine]",–,B (26-49% inhibition)
